The nature of data set [1]: blood cell count after the last dosage in the therapeutic study. It is filed as in vivo, mice. How it is done: (§1) Tumor bearing mice (n=6-8) were intravenously administered PBS; Velcade® (0.8 mg/kg); BTZ-PVA (0.8, 1.2 mg/kg); DOX (4 mg/kg); DOX-DCMs (4 mg/kg); BTZ 0.8 mg/kg followed by DOX 4 mg/kg 24 h later; or BTZ-PVA 0.8 mg/kg followed by DOX-DCMs 24 h later every four days for a total of 6 doses. Data represent mean±SEM.

A short description of data set [2]: serum chemistry (hepatic and renal function panel) in the therapeutic study. In kind it is in vivo, mice. Conditions: day 7 after the last dosage. How it is done: as §1
Data set [3] in a line: in vitro DOX release from PVA-LA NPs by dialysis. Conditions: PBS, within 1 h. In kind it is physicochemical. How it is done:
Drug release study. DOX-loaded Cr-PVA-LA NPs solution was prepared to determine the in vitro drug release profile. The initial DOX concentration was 1.0 mg/mL, Aliquots of the DOX-loaded Cr-PVA-LA NPs solution were injected into dialysis cartridges with 3.5 kDa MWCO. The cartridges were dialyzed against 100 volume times PBS solution at 37° C. and rotator rate was set to 100 rpm. […] Values were reported as the means for each triplicate samples.
Loading and Triggered Release of DOX. […] The accumulated release results shown in FIG. 14 represent the total amount of DOX released from different sample. […] More than 50% of DOX were release within 1 h. […] It should be further noted that no burst release was observed even in the presence of NAC. The unique core-shell structure contributes to the constant release rate. This biodegradable PVA-LA NPs is a highly promising approach to controlled drug release.

In data set [4] the test system is subcutaneous MDA-MB-231 breast cancer xenografts. Kind of data set: in vivo therapeutic study, breast cancer xenograft. The arrangement: species or system nude mice. Conditions: 5 mg/kg intravenous, every four day, 6 doses. How it is done:
In vivo therapeutic study. Subcutaneous MDA-MB-231 breast cancer xenografts were implanted into nude mice as described above. […] On day 0, these mice were randomly divided into three groups, with five mice in each group. […] Tumor volume was calculated by the formula (L×W^2)/2, where L is the longest and W is the shortest in tumor diameters(mm). Anti-tumor efficacy in breast cancer xenograft mouse mode The anti-tumor effects of DOX-PVA-LA NPs after intravenous injection were evaluated in subcutaneous MDA-MB-231 tumor bearing mice.

Data set [5] is described as follows: in vitro DOX release from PPNs by dialysis. It is filed as physicochemical. Conditions: PBS 37° C., within the first 5 hrs.
Description: In vitro drug release profiles were carried out using the dialysis method. Aliquots of DOX-loaded PPNs solution were injected into a dialysis cartridge with a molecular weight cutoff of 3.5 kDa. The whole dialysis process was carried out at 37° C. with swirling at 70 rpm in the presence of 10 g/L activated charcoal in 1 L PBS buffer. The concentration of DOX remained in the dialysis cartridge at various time points was determined by absorbance measurement.
Data set [6] deals with SKOV-3 ovarian cancer cells. The experiment in a line: cellular uptake (flow cytometry, confocal microscopy). In kind it is cell-based. How it is done: The uptake profiles of DOX-loaded PPNs in SKOV-3 ovarian cancer cells were qualitatively observed by confocal microscopy. SKOV-3 cells were seeded in an 8-well slide. […] Then the cells were washed thrice with PBS buffer, fixed with 4% paraformaldehyde for 15 min. The nuclei were stained with DAPI. The slides were mounted with coverslips and observed by confocal microscopy.
The cellular uptake efficiency of PPNs in SKOV3 ovarian cancer cells was quantified with flow cytometry at different incubation time points (FIG. 19a). […] Additionally, a marked increase in porphyrin fluorescence from PPNs was visualized in the cytoplasm at 6 hrs, compared to that at 30 min after incubation.
(A flow cytometer gives signals particle by particle.)

The test system of data set [7] is subcutaneous SKOV-3 tumor. Kind of data set: phototherapy and tumor response. It is filed as in vivo, mice.
Description: Phototherapy and tumor response. Subcutaneous SKOV-3 tumor-bearing mice were used for in vivo therapeutic study when tumor volumes reached 80-120 mm^3 (designate as Day 0). The therapeutic efficacy and toxicity profiles of different PPNs formulations were evaluated. On day 0, all mice were randomly divided into seven groups (n=6). […] The DOX was given at the dose of 2.5 mg/kg, and PPNs was given at the dose of 2 mg/kg, calculated on the porphyrin content. The treatment was given every 5 days on day 0, 5, 10 and 15 for a total 4 doses. […] Tumor size and body weight were measured twice a week. Tumor volume was calculated using the equation (L×W^2)/2, where L is the longest and W is shortest in tumor diameters (mm). For humane reasons, mice were sacrificed when tumor volume reached 1000 mm^3, which was considered as the end point of survival data.
A short description of data set [8]: in vivo toxicity evaluation. Conditions: 5 days after the last dose. Set-up: species or system mice. How it is done: Phototherapy and tumor response. Subcutaneous SKOV-3 tumor-bearing mice were used for in vivo therapeutic study when tumor volumes reached 80-120 mm^3 (designate as Day 0). The therapeutic efficacy and toxicity profiles of different PPNs formulations were evaluated. On day 0, all mice were randomly divided into seven groups (n=6). Mice were intravenously administered with PBS, blank PPNs, DOX·HCl and PPNs-DOX. The DOX was given at the dose of 2.5 mg/kg, and PPNs was given at the dose of 2 mg/kg, calculated on the porphyrin content. The treatment was given every 5 days on day 0, 5, 10 and 15 for a total 4 doses. […] Tumor size and body weight were measured twice a week. Tumor volume was calculated using the equation (L×W^2)/2, where L is the longest and W is shortest in tumor diameters (mm). For humane reasons, mice were sacrificed when tumor volume reached 1000 mm^3, which was considered as the end point of survival data. At day 5 after the last dosage, blood samples were collected from each group to test blood cell counts and serum chemistry.
In vivo toxicity evaluation. The potential toxicity of PPNs and the related formulations was assessed in all treated mice. The body weight change, blood cell counts and serum chemistry including renal and hepatic function panels were monitored. […]

Data set [9] can be described thus: cumulative BTZ release in PBS medium. In kind it is physicochemical. Conditions: PBS pH 7.4, within the first 3 h.

Structures are written as SMILES.

In data set [1] (4 mg/kg), `COc1cccc2c1C(=O)c1c(O)c3c(c(O)c1C2=O)C[C@@](O)(C(=O)CO)C[C@@H]3O[C@H]1C[C@H](N)[C@H](O)[C@H](C)O1` [DOX, doxorubicin] came in with a Hemoglobin of 13.6 ± 0.9 g/dL, a Neutrophil cells of 0.5 ± 0.2 K/μl, a Platelets of 1618.2 ± 190.5 K/μL and an RBC of 8.3 ± 0.5 M/μl. In addition, in data set [1] (4 mg/kg), the WBC is on record as 5.8 ± 1.0 K/μl. In [2] (4 mg/kg), this compound gave an ALT of 42.6 ± 8.6 U/L, an AST of 167.7 ± 23.4 U/L, a BUN of 18.0 ± 2.6 mg/dL and a Creatinine of 0.2 ± 0.0 mg/dL. Further, the “Total Bilirubin” value in data set [2] (4 mg/kg) stood at 0.1 ± 0.0 mg/dL. Besides, the DOX released result in data set [3] is reported as “More than 50%”. Moreover, the “anti-tumor activity compared with PBS control” value in data set [4] is “significant anti-tumor activity”. The DOX released in [5] was 90%. Further, in data set [6] (30 min incubation), the “intracellular localization of DOX fluorescence” value is recorded as “could be observed in the nuclei”. Besides, the “intracellular localization of DOX fluorescence” value in [6] (6 hrs incubation) was “completely transported into the nuclei”. The “tumor growth compared to PBS control” value in [7] (DOX 2.5 mg/kg iv days 0, 5, 10, 15, without light) is on record as “did not exhibit obvious antitumor effect”. The “survival compared to PBS control” value in [7] (without light) is on record as “no obvious prolonged survival rate”. Further, in data set [8], the “white blood cell counts” value is on record as “certain decrease”.
For the compound `CC(C)C[C@H](NC(=O)[C@H](Cc1ccccc1)NC(=O)c1cnccn1)B(O)O` [BTZ, [(1R)-3-methyl-1-({(2S)-3-phenyl-2-[(pyrazin-2-ylcarbonyl)amino]propanoyl}amino)butyl] boronic acid], the BTZ released result in data set [9] was “about 80%”. Further, in data set [1] (0.8 mg/kg), the Hemoglobin is on record as 14.6 ± 0.6 g/dL, the Neutrophil cells is recorded as 0.5 ± 0.4 K/μl, the Platelets is 1424.3 ± 146.2 K/μL and the RBC worked out at 9.2 ± 0.5 M/μl. This compound returned a WBC in data set [1] (0.8 mg/kg) of 5.6 ± 1.3 K/μl. In data set [2] (0.8 mg/kg), this compound returned an ALT of 28.3 ± 3.3 U/L, an AST of 117.1 ± 26.4 U/L, a BUN of 16.3 ± 2.1 mg/dL and a Creatinine of 0.2 ± 0.1 mg/dL. Also, the “Total Bilirubin” value in [2] (0.8 mg/kg) is 0.1 ± 0.0 mg/dL.

These data come from US11135309B2, “Poly(vinyl alcohol) nanocarriers” (THE REGENTS OF THE UNIVERSITY OF CALIFORNIA, priority 2015, dated 2021).
